Measurements as given in patent US8940900B2, “2,2,2-tri-substituted acetamide derivatives as glucokinase activators, their process and pharmaceutical application” (Advinus Therapeutics Private Limited, priority 2007, dated 2015).

Legend:
[1] = target: T1, purified human recombinant GK (Homo sapiens, UniProt P35557); assay: Glucokinase activity, coupled enzymatic assay (NADH absorbance at 340 nm); assay type: biochemical; settings: 5 mM glucose; read-out: EC50 values for GK activation at 5 mM Glucose conc
T1 sequence (P35557 1-465): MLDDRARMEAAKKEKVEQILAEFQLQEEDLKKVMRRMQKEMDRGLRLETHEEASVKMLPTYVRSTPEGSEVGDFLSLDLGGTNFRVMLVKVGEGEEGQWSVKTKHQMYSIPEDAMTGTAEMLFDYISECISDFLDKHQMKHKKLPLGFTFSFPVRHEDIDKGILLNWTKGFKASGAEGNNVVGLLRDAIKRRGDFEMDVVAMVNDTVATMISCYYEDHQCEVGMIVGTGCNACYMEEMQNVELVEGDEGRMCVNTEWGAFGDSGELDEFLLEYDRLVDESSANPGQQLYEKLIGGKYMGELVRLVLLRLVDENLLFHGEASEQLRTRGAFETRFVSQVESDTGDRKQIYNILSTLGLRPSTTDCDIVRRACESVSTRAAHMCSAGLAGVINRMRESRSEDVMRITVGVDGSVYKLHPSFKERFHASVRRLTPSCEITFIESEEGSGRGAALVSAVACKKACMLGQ
Source text: (§1) Glucokinase (GK) activity, in vitro, has been measured using a coupled enzymatic assay (Ref: Hariharan et al (1997) Diabetes 46: 11-16). GK catalyzes the first step, the conversion of glucose to glucose-6-phosphate (G6P) in the presence of ATP. G6P in turn is converted by glucose-6-phosphate dehydrogenase (G6PD) to 6-phosphogluconate, a process that requires NAD, resulting in NADH formation. Since the GK-catalyzed step is the rate-limiting step of this coupled enzymatic process, the rate of accumulation of 6-phosphogluconate and NADH is directly proportional to the rate of glucose phosphorylation by GK. The rate of the GK-catalyzed reaction can therefore be measured by monitoring the increase in NADH absorbance at 340 nm.
(§2) The assay is carried out according to the protocol outlined in Hariharan et al (1997), Diabetes 46: 11-16. Briefly, the test compounds are incubated in a reaction mix containing 25 mM HEPES (pH 7.2), 10 mM MgCl2, 100 mM KCl, 5 mM ATP, 2 mM DTT, 0.5 mM NAD, 1 U/ml Leuconostoc mesenteroides G6PD, 0.3 U/ml of purified human recombinant GK, and different concentrations of glucose. Enzymatic activity is calculated from the initial reaction velocity, measured from the change in NADH absorbance as a function of time.
Compounds described in formula (I), in concentration ranges from 1.0 nM to 500 μM, are tested in purified human recombinant Glucokinase assay described above.
A compound is considered to be a glucokinase activator if it, in its testable range of concentrations, yields a higher rate of glucose phosphorylation than in its absence.

[2] = target: T1, purified human recombinant GK; assay: Characterization of partial glucokinase activators: dose dependent effect on % ΔS0.5 of glucokinase for glucose; assay type: biochemical; settings: for EC50: sigmoidal fit of % ΔS0.5 vs log concentration, read-out: EC50 (measured against % ΔS0.5); for Classification as partial or full GK activator: compared to Ro-28-1675, partial = S0.5 shift between 20% and 90%, full = 90% or more
Protocol: The ΔS0.5 is then normalized to a percent scale, where the S0.5 in the vehicle control is set to 0% and 0 mM glucose is set to 100%. […] The EC50 of % change in S0.5 is obtained from the sigmoidal fit of the data.
The change in the S0.5 of glucokinase (ΔS0.5) for glucose in the presence of Examples A11, O15 and J1 is calculated by subtracting the S0.5 at each concentration of each Example from the S0.5 in the vehicle control. The ΔS0.5 is then normalized to a percent scale, where the S0.5 in the vehicle control is set to 0% and 0 mM glucose is set to 100%. The % ΔS0.5 is then plotted against the log of the concentration of each Example.
FIG. 2B illustrates such a derived plot, taking S0.5 data from FIG. 2A.
as §1, §2
Compounds of interest are tested in GK assay to monitor dose dependent effect on Glucokinase activation (in kinetic mode), as described above, at various glucose concentration.

primary rat hepatocytes = assay: Glycogen synthesis in primary rat hepatocytes; assay type: cell-based; settings: 3 hours, over DMSO control
Protocol: Primary hepatocytes are collected from male Wistar rats, and tested for viability by trypan blue exclusion. […] The medium is then replaced with fresh MEM (serum-free) containing 2 μCi/ml of D-[U^14C]-Glucose along with 10 μM of the compound in a final DMSO concentration of 0.1%. The final glucose concentration is brought to 10 mM by the addition of D-Glucose (MEM already contains 5 mM glucose). The cells are incubated for 3 hours at 37° C. […] After another round of centrifugation, the supernatant is removed, and the pellet containing the precipitated glycogen is dried overnight. De novo synthesized glycogen is estimated in a scintillation counter (MicroBeta Trilux, Perkin Elmer), and expressed as fold increase over DMSO control.
The protocol for isolation of primary rat hepatocytes is based on the method described in “Methods in Enzymology, Vol. III. pp 34-50. Ed. by S. P. Colowick and N. O. Kaplan.
Compounds described in formula (I), in concentration ranges from 1.0 nM to 500 μM, are tested in glycogen synthesis assay described above.

[3] = animal efficacy models; PSN-GK1 at higher dose; cited from earlier work
[4] = Table 4, partial glucokinase activators
[5] = Table 3, vehicle S0.5 = 0%, 0 mM glucose = 100%

2-(2,4-Difluoro-phenoxy)-2-methyl-N-(1H tetrazol-5-yl)-propionamide [Example A27]
EC50 [1]: 7 µM

CC(C)(Oc1ccc2ccccc2c1)C(=O)Nc1nccs1 [Example A5, 2-Methyl-2-(naphthalen-2-yloxy)-N-thiazol-2-yl-propionamide]
melting point: 117 to 118 °C

CC(C)(Oc1ccc2c(c1)OCO2)C(=O)Nc1ncc(Cl)s1 [Example A10, 2-(Benzo[1,3]dioxol-5-yloxy)-N-(5-chloro-thiazol-2-yl)-2-methyl-propionamide]
Emax [2, 4]: 75% | EC50 [1]: 2.2 µM

CC(C)(Oc1ccc(F)cc1F)C(=O)Nc1ncc(Cl)s1 [Example A11, N-(5-Chloro-thiazol-2-yl)-2-(2,4-difluoro-phenoxy)-2-methyl-propionamide]
EC50 ([2]; Table 3): 1.25 µM | Emax [2, 5]: 7% | Classification as partial or full GK activator [2]: partial GK activators | EC50 [1]: 1.8 µM

CC(C)(Oc1ccc2[nH]ccc2c1)C(=O)Nc1ncc(Cl)s1 [Example A17, N-(5-Chloro-thiazol-2-yl)-2-(1H-indol-5-yloxy)-2-methyl-propionamide]
Fold increase in glycogen synthesis at 10 μM Compound (primary rat hepatocytes; Table 2, 10 mM glucose): 2.9 fold

CC(C)(Oc1ccc(F)cc1F)C(=O)Nc1ncc(F)s1 [Example A22, 2-(2,4-Difluoro-phenoxy)-N-(5-fluoro-thiazol-2-yl)-2-methyl-propionamide]
Fold increase in glycogen synthesis at 10 μM Compound (primary rat hepatocytes; Table 5, 10 mM glucose): 2.3 fold

CCC(C)(Oc1ccc(F)cc1F)C(=O)Nc1ncc(Cl)s1 (stereo not shown) [Example G7, N-(5-Chloro-thiazol-2-yl)-2-(2,4-difluoro-phenoxy)-2-methyl-butyramide]
Emax [2, 4]: 60% | EC50 [1]: 7.1 µM

CCC(C)(Oc1ccc(F)cc1F)C(=O)Nc1nc(CC(=O)O)cs1 (stereo not shown) [Example H1, {2-[2-(2,4-Difluoro-phenoxy)-2-methyl-butyrylamino]-thiazol-4-yl}-acetic acid]
melting point: 148 to 149 °C

CC(C)(Oc1ccc(F)cc1F)C(=O)Nc1nc(CC(=O)Nc2ccc(F)cc2)cs1 [Example J1, 2-(2,4-Difluoro-phenoxy)-N-{4-[(4-fluoro-phenylcarbamoyl)-methyl]-thiazol-2-yl}-2-methyl-propionamide]
EC50 ([2]; Table 3): 3 µM | Emax [2, 5]: 55% | Classification as partial or full GK activator [2]: partial GK activators | EC50 [1]: 4.5 µM

CC(C)(Oc1ccc2c(c1)OCO2)C(=O)Nc1nc(CC(=O)Nc2ccc(F)cc2)cs1 [Example J2, 2-(Benzo[1,3]dioxol-5-yloxy)-N-{4-[(4-fluoro-phenylcarbamoyl)-methyl]-thiazol-2-yl}-2-methyl-propionamide]
Emax [2, 4]: 40% | Fold increase in glycogen synthesis at 10 μM Compound (primary rat hepatocytes; Table 5, 10 mM glucose): 1.8 fold

CC(C)(Oc1ccc(F)cc1F)C(=O)Nc1nc(CC(=O)Nc2ccc(F)cc2)c(Cl)s1 [Example J4, N-{5-Chloro-4-[(4-fluoro-phenylcarbamoyl)-methyl]-thiazol-2-yl}-2-(2,4-difluoro-phenoxy)-2-methyl-propionamide]
Emax [2, 4]: 50%

CC(C)(Oc1cccc(C(=O)O)c1)C(=O)Nc1nccs1 [Example K1, 3-[1-Methyl-1-(thiazol-2-ylcarbamoyl)-ethoxy]-benzoic acid]
melting point: 166 to 168 °C

CC(Oc1ccc(F)cc1F)(C(=O)Nc1nccs1)c1ccc(S(C)(=O)=O)cc1 (stereo not shown) [Example O1, 2-(2,4-Difluoro-phenoxy)-2-(4-methanesulfonyl-phenyl)-N-thiazol-2-yl-propionamide]
melting point: 89 to 90 °C

CSc1ccc(OC(C)(C(=O)Nc2ncc(Cl)s2)c2ccc(S(C)(=O)=O)cc2)cc1 (stereo not shown) [Example O4, N-(5-Chloro-thiazol-2-yl)-2-(4-methanesulfonyl-phenyl)-2-(4-methylsulfanyl-phenoxy)-propionamide]
melting point: 67 to 68 °C

CC(Oc1ccc(F)cc1F)(C(=O)Nc1ncc(F)s1)c1ccc(S(C)(=O)=O)cc1 (stereo not shown) [Example O9, 2-(2,4-Difluoro-phenoxy)-N-(5-fluoro-thiazol-2-yl)-2-(4-methanesulfonyl-phenyl)-propionamide]
Fold increase in glycogen synthesis at 10 μM Compound (primary rat hepatocytes; Table 5, 10 mM glucose): 2.8 fold

CC(Oc1ccc(F)cc1F)(C(=O)Nc1ncc(Cl)s1)c1ccc(S(=O)(=O)C2CC2)cc1 (stereo not shown) [Example O15, N-(5-Chloro-thiazol-2-yl)-2-(4-cyclopropanesulfonyl-phenyl)-2-(2,4-difluoro-phenoxy)-propionamide]
EC50 ([2]; Table 3): 1.2 µM | Emax [2, 5]: 55% | Classification as partial or full GK activator [2]: partial GK activators | EC50 [1]: 1.8 µM

Cc1cnc(NC(=O)C(C)(Oc2ccc(F)cc2F)c2ccc(S(C)(=O)=O)cc2)s1 (stereo not shown) [Example O16, 2-(2,4-Difluoro-phenoxy)-2-(4-methanesulfonyl-phenyl)-N-(5-methyl-thiazol-2-yl)-propionamide]
EC50 [1]: 5.4 µM

CC(Oc1ccc(Cl)cc1)(C(=O)Nc1ncc(Cl)s1)c1ccc(S(C)(=O)=O)cc1 (stereo not shown) [Example O18, 2-(4-Chloro-phenoxy)-N-(5-chloro-thiazol-2-yl)-2-(4-methanesulfonyl-phenyl)-propionamide]
Emax [2, 4]: 60%

CC(Oc1ccc(F)cc1F)(C(=O)Nc1ncc(Cl)s1)c1ccc(S(C)(=O)=O)cc1 (stereo not shown) [Example O19, N-(5-Chloro-thiazol-2-yl)-2-(2,4-difluorophenoxy)-2-(4-methanesulfonyl-phenyl)-propionamide]
Emax [2, 4]: 75%

CC(Oc1ccc(F)c(F)c1)(C(=O)Nc1ncc(Cl)s1)c1ccc(S(C)(=O)=O)cc1 (stereo not shown) [Example O20, N-(5-Chloro-thiazol-2-yl)-2-(3,4-difluoro-phenoxy)-2-(4-methanesulfonyl-phenyl)-propionamide]
Emax [2, 4]: 50%

CC(Oc1ccc(F)cc1F)(C(=O)Nc1nc(CC(=O)O)c(Cl)s1)c1ccc(S(C)(=O)=O)cc1 (stereo not shown) [Example P1, {5-Chloro-2-[2-(2,4-difluoro-phenoxy)-2-(4-methanesulfonyl-phenyl)-propionylamino]-thiazol-4-yl}-acetic acid]
melting point: 109 to 111 °C | EC50 [1]: 7 µM

CC(Oc1ccc(F)cc1F)(C(=O)Nc1ccc(C(=O)O)cn1)c1ccc(S(C)(=O)=O)cc1 (stereo not shown) [Example P4, 6-[2-(2,4-Difluoro-phenoxy)-2-(4-methanesulfonyl-phenyl)-propionylamio]-nicotinic acid]
EC50 [1]: > 14 µM

CC(Oc1ccc(F)cc1F)(C(=O)Nc1ccc(C(=O)O)cn1)c1ccc(S(=O)(=O)C2CC2)cc1 (stereo not shown) [Example P5, 6-[2-(4-Cyclopropanesulfonyl-phenyl)-2-(2,4-difluoro-phenoxy)-propionylamino]-nicotinic acid]
Fold increase in glycogen synthesis at 10 μM Compound (primary rat hepatocytes; Table 2, 10 mM glucose): 3.2 fold

CS(=O)(=O)c1ccc([C@@H](CC2CCCC2)C(=O)Nc2nccs2)cc1 [Ro-28-1675]
Hypoglycemia [3]: cause hypoglycemia in animal efficacy models
